Laboratory results taken from US9771378B2 (Denali Therapeutics, Inc., priority 2014, dated 2017).

Test system: Aβ42 (human neuroglioma H4 cells expressing human wild type APP751)
Test: In vitro cell screening assay with sandwich ELISA quantification of Aβ42 peptide
Format: cell-based
Settings: H4 cells stably expressing human wild type APP751; Pro293 chemically defined medium; compounds 0.003-10 μM; incubated overnight (16-18 h); supernatant Aβ42 by sandwich ELISA; normalized to DMSO and DAPT; read-out: Aβ42 H4 Prot Fre IC50
Procedure, shortened: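 H4 neuroglioma cells stably expressing human wild-type APP751 were treated in Pro293 medium with compounds (0.003-10 μM, 0.33% DMSO) for 16-18 h at 37° C. Secreted Aβ42 measured by sandwich ELISA (C-terminal capture, 4G8-HRP detection, TMB, 450 nm). IC50 by variable-slope sigmoidal regression on percent of DMSO control.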

## COc1cc(Nc2ncc3c(n2)N(C)C(C2CCC(F)(F)CC2)CO3)cnc1-c1cnn(C)c1 (single isomer, unassigned; (-)) [Example 231B]
  IC50: > 3 µM

## COc1cc(Nc2ncc3c(n2)N(C)C(C(F)(F)F)CO3)ccc1-n1cnc(C)c1 (single isomer, unassigned; (+)) [Example 187A]
  IC50: 0.419 µM

## COc1cc(Nc2ncc3c(n2)N(C)C(c2ccc(F)cc2)CO3)ccc1-c1ccnc(C)c1 (single isomer, unassigned; (-)) [Example 61A]
  IC50: 1.01 µM

## Cc1cn(-c2ccc(Nc3ncc4c(n3)N(C)C(c3cc(F)cc(F)c3)CO4)cc2C#N)cn1 (single isomer, unassigned; (+)) [Example 203A, (+)-5-((7-(3,5-difluorophenyl)-8-methyl-7,8-dihydro-6H-pyrimido [5,4-b] [1, 4]oxazin-2-yl)amino)-2-(4-methyl-1H-imidazol-1-yl) benzonitrile]
  IC50: 0.016 µM

## COc1cc(Nc2ncc3c(n2)N(C)C(c2ccc(F)cc2C)CO3)ccc1-n1cnc(C)c1 (single isomer, unassigned; (+)) [Example 117B]
  IC50: 0.022 µM

## COc1cc(Nc2ncc3c(n2)N(C)C(c2cc(F)cc(F)c2)CO3)ccc1-c1ccnc(C)c1 (racemic) [Example 42]
  IC50: 0.047 µM

## COc1cc(Nc2ncc3c(n2)N2CCC(F)(F)C2CO3)cnc1-n1cnc(C)c1 (single isomer, unassigned; (+)) [Example 305A, (+)-7,7-difluoro-N-(5-methoxy-6-(4-methyl-1H-imidazol-1-yl)pyridin-3-yl)-6a, 7,8,9-tetrahydro-6H-pyrimido [5,4-b] pyrrolo [1,2-d] [1, 4] oxazin-2-amine]
  IC50: 0.132 µM

## COc1cc(Nc2ncc3c(n2)N(C)[C@H](COc2ccccc2)CO3)ccc1-n1cnc(C)c1 [Example 201]
  IC50: 0.143 µM

## COc1cc(Nc2ncc3c(n2)N(C)C(c2cc(F)cc(F)c2)CO3)cnc1-n1cnc(C)c1 (single isomer, unassigned; (+)) [Example 189A]
  IC50: 0.013 µM

## Cc1cn(-c2ccc(Nc3ncc4c(n3)N(C)C(c3cc(F)c(F)c(F)c3)CO4)cc2)cn1 (single isomer, unassigned; (+)) [Example 115B]
  IC50: 0.022 µM

## COc1cc(Nc2ncc3c(n2)N(C)C(c2cc(Cl)ccc2C(F)(F)F)CO3)ccc1-n1cnc(C)c1 (single isomer, unassigned; (+)) [Example 165A]
  IC50: 0.089 µM

## COc1nc(Nc2ncc3c(n2)N(C)C(C)CO3)ccc1-c1cnn(C)c1 (racemic) [Example 195]
  IC50: > 3 µM

## Cc1cn(-c2ccc(Nc3ncc4c(n3)N(C)C(c3cc(F)cc(F)c3)CO4)cc2OC(F)(F)F)cn1 (single isomer, unassigned; (+)) [Example 223B]
  IC50: > 3 µM

## COc1cc(Nc2ncc3c(n2)N(C)C(c2ccc(F)cc2)CO3)ccc1-c1ccnc(C)c1 (single isomer, unassigned; (+)) [Example 61B]
  IC50: 0.058 µM

## COc1cc(Nc2ncc3c(n2)N(C)C(c2cc(F)ccc2C(F)(F)F)CO3)ccc1-n1cnc(C)c1 (single isomer, unassigned; (-)) [Example 105A]
  IC50: 0.088 µM

## COc1cc(Nc2ncc3c(n2)N(C)C(C(F)(F)F)CO3)ncc1-n1cnc(C)c1 (single isomer, unassigned; (+)) [Example 236A]
  IC50: > 3 µM

## Cc1cc(-c2ccc(Nc3ncc4c(n3)N(C)C(c3ccccc3C)CO4)cc2F)ccn1 (single isomer, unassigned; (-)) [Example 32A]
  IC50: 0.888 µM

## COc1cc(Nc2ncc3c(n2)N(C)[C@@H](c2ccccc2)CO3)ccc1-c1ccnc(C)c1 [Example 21B, (S)—N-(3-methoxy-4-(2-methylpyridin-4-yl)phenyl)-8-methyl-7-phenyl-7,8-dihydro-6H-pyrimido[5,4-b][1,4]oxazin-2-amine]
  IC50: 0.04 µM

## Cc1cn(-c2ccc(Nc3ncc4c(n3)N(C)C(c3ccccc3C)CO4)cc2)cn1 (single isomer, unassigned; (-)) [Example 43B]
  IC50: > 0.3 µM

## COc1ccc(C2COc3cnc(Nc4cnc(-n5cnc(C)c5)c(OC)c4)nc3N2C)c(C)c1 (single isomer, unassigned; (+)) [Example 215A]
  IC50: 0.016 µM

## Cc1cn(-c2ccc(Nc3ncc4c(n3)N3CCOC[C@H]3CO4)cc2F)cn1 [Example 299]
  IC50: > 3 µM

## Cc1cn(-c2ccc(Nc3ncc4c(n3)N(C)[C@@H](CO)CO4)cc2F)cn1 [Example 170, (S)-(2-((3-fluoro-4-(4-methyl-1H-imidazol-1-yl)phenyl)amino)-8-methyl-7,8-dihydro-6H-pyrimido [5,4-b] [1, 4]oxazin-7-yl) methanol]
  IC50: 1.24 µM

## Cc1cn(-c2ccc(Nc3ncc4c(n3)N(C)C(c3cc(F)ccc3C(F)(F)F)CO4)cc2F)cn1 (single isomer, unassigned; (-)) [Example 104A]
  IC50: 0.526 µM

## COc1cc(Nc2ncc3c(n2)N(C)C(c2ccccc2C)CO3)cnc1-n1cnc(C)c1 (single isomer, unassigned; (-)) [Example 171B]
  IC50: 0.067 µM

## Cc1cc(-c2ccc(Nc3ncc4c(n3)N(C)C(c3ccc(F)cc3)CO4)cc2F)ccn1 (single isomer, unassigned; (-)) [Example 56B]
  IC50: 3.46 µM

## Cc1cn(-c2ccc(Nc3ncc4c(n3)N3CCCC3CO4)cc2F)cn1 (single isomer, unassigned; (-)) [Example 289B]
  IC50: 0.157 µM

## COc1ccc(C)c(C2COc3cnc(Nc4ccc(-n5cnc(C)c5)c(OC)c4)nc3N2C)c1 (single isomer, unassigned; (+)) [Example 175A]
  IC50: 0.011 µM

## COc1ccc(Cl)c(C2COc3cnc(Nc4ccc(-n5cnc(C)c5)c(OC)c4)nc3N2C)c1 (single isomer, unassigned; (+)) [Example 167A]
  IC50: 0.022 µM

## Cc1cc(-c2ccc(Nc3ncc4c(n3)N(C)C(c3cc(F)cc(F)c3)CO4)cc2)ccn1 (racemic) [Example 28]
  IC50: 0.09 µM

## COc1cc(Nc2ncc3c(n2)N(C)C(C2COC2)CO3)cnc1-n1cnc(C)c1 (single isomer, unassigned; (+)) [Example 243A]
  IC50: 0.601 µM

## COc1nc(Nc2ncc3c(n2)N(C)C(c2cc(F)cc(F)c2)CO3)ccc1-c1cnn(C)c1 (single isomer, unassigned; (-)) [Example 184A]
  IC50: > 3 µM

## Cc1cn(-c2ccc(Nc3ncc4c(n3)N(C)C(c3cc(F)cc(F)c3)CO4)cc2)cn1 (single isomer, unassigned; (+)) [Example 23B]
  IC50: 0.032 µM

## COc1cc(Nc2ncc3c(n2)N(C)C(c2ccccc2C(F)(F)F)CO3)ccc1-n1cnc(C)c1 (single isomer, unassigned; (+)) [Example 55B]
  IC50: 0.066 µM

## COc1cc(Nc2ncc3c(n2)N(C)C(c2ccccc2C(F)(F)F)CO3)ccc1-n1cnc(C)c1 (racemic) [Example 55]
  IC50: 0.037 µM

## Cc1cn(-c2ccc(Nc3ncc4c(n3)N(C)C(c3cc(C(F)(F)F)ccc3Cl)CO4)cc2F)cn1 (single isomer, unassigned; (-)) [Example 173B]
  IC50: 0.831 µM

## COc1cc(Nc2ncc3c(n2)N(C)[C@@H](COc2ccccc2)CO3)ccc1-n1cnc(C)c1 [Example 200]
  IC50: 0.03 µM

## COc1cc(Nc2ncc3c(n2)N(C)C(c2cc(F)cc(F)c2)CO3)ccc1-n1cnc(C)c1 (single isomer, unassigned; (+)) [Example 30B]
  IC50: 0.023 µM

## COc1cc(Nc2ncc3c(n2)N(C)C(C)(C)CO3)ccc1-c1cnn(C)c1 [Example 267]
  IC50: 0.822 µM

## COc1cc(Nc2ncc3c(n2)N(C)C2(CO3)CC(F)(F)C2)cnc1-n1cnc(C)c1 [Example 278]
  IC50: 0.092 µM

## COc1cc(Nc2ncc3c(n2)N(C)C2(CC2)CO3)cnc1-c1cnn(C)c1 [Example 268]
  IC50: 2.78 µM

## COc1cc(Nc2ncc3c(n2)N2CCC[C@]2(C)CO3)ccc1-n1cnc(C)c1 [Example 294, (R)-N-(3-methoxy-4-(4-methyl-1H-imidazol-1-yl)phenyl)-6a-methyl-6a, 7,8,9-tetrahydro-6H-pyrimido [5,4-b] pyrrolo [1,2-d] [1, 4] oxazin-2-amine]
  IC50: 0.08 µM

## Cc1cn(-c2ccc(Nc3ncc4c(n3)N(C)C(c3cc(F)cc(F)c3)CO4)cc2)cn1 (racemic) [Example 23]
  IC50: 0.0379 µM

## COc1nc(Nc2ncc3c(n2)N(C)C(c2cc(F)cc(F)c2)CO3)ccc1-c1ccnc(C)n1 (single isomer, unassigned; (-)) [Example 183B]
  IC50: > 3 µM

## COc1cc(Nc2ncc3c(n2)N(C)C(C2(C(F)(F)F)CC2)CO3)ccc1-n1cnc(C)c1 (single isomer, unassigned; (+)) [Example 245B]
  IC50: 0.022 µM

## Cc1cn(-c2ccc(Nc3ncc4c(n3)N(C)C3(CC3)CO4)nc2)cn1 [Example 265]
  IC50: > 3 µM

## Cc1cn(-c2ccc(Nc3ncc4c(n3)N(C)C(c3ccccc3C)CO4)cc2F)cn1 (single isomer, unassigned; (-)) [Example 34B]
  IC50: 0.46 µM

## COc1ccc(Cl)c(C2COc3cnc(Nc4cnc(-n5cnc(C)c5)c(OC)c4)nc3N2C)c1 (single isomer, unassigned; (+)) [Example 208A]
  IC50: 0.02 µM

## COc1cc(Nc2ncc3c(n2)N(C)[C@H](CO)CO3)ccc1-n1cnc(C)c1 [Example 177, (R)-(2-((3-methoxy-4-(4-methyl-1H-imidazol-1-yl)phenyl)amino)-8-methyl-7,8-dihydro-6H-pyrimido [5,4-b] [1, 4]oxazin-7-yl) methanol]
  IC50: 0.262 µM

## COc1nc(Nc2ncc3c(n2)N(C)C(c2cc(F)cc(F)c2)CO3)ccc1-n1cnc(C)c1 (single isomer, unassigned; (-)) [Example 179A]
  IC50: > 3 µM

## Cc1cn(-c2ccc(Nc3ncc4c(n3)N(C)C(c3cc(F)cc(F)c3)CO4)cc2F)cn1 (racemic) [Example 33]
  IC50: 0.038 µM

## COc1cc(Nc2ncc3c(n2)N(C)C(c2ccccc2OC(F)(F)F)CO3)ccc1-n1cnc(C)c1 (single isomer, unassigned; (-)) [Example 60A]
  IC50: 0.092 µM
